Measurements published in ChEMBL document CHEMBL5380835, “Discovery of Clinically Used Octenidine as NRAS Repressor That Effectively Inhibits NRAS-Mutant Melanoma” (J Med Chem, 2023).
The source made the active and inactive calls. The rule behind the calls is not given here.

Tests used:
SK-MEL-2 [1] = experiment: Antiproliferative activity against human SK-MEL-2 cells assessed as inhibition of colony formation at 1.5 uM measured after 10 days by crystal violet staining based assay; assay type: functional, cell-based; conditions: time 10.0 day
SK-MEL-2 [2] = experiment: Synergistic cytotoxicity against human SK-MEL-2 cells expressing NRAS mutant assessed as combination index measured for 48 hrs in presence of Rapamycin by MTT assay; assay type: functional
SK-MEL-2 [3] = experiment: Antitumor activity against human SK-MEL-2 cells xenografted in BALB/c nude mouse assessed as T/C ratio at 5 mg/kg/day, ip administered for 30 days relative to control; assay type: functional; conditions: time 30 day
SK-MEL-2 [4] = experiment: Antitumor activity against human SK-MEL-2 cells xenografted in BALB/c nude mouse assessed as tumor growth inhibition at 5 mg/kg/day, ip administered for 30 days relative to control; assay type: functional; conditions: SK-MEL-2, 720 h, time 30 day, read-out: TGI
SK-MEL-2 [5] = experiment: Antitumor activity against human SK-MEL-2 cells xenografted in BALB/c nude mouse assessed as tumor growth inhibition at 5 mg/kg/day, ip by electronic caliper method; assay type: functional, organism-based; conditions: time 30.0 day, TDE = time-dependent effect
SK-MEL-2 [6] = experiment: Synergistic cytotoxicity against human SK-MEL-2 cells expressing NRAS mutant assessed as combination index measured for 48 hrs in presence of MK2206 by MTT assay; assay type: functional
SK-MEL-2 [7] = experiment: Antitumor activity against human SK-MEL-2 cells xenografted in BALB/c nude mouse assessed as reduction in tumor weight at 5 mg/kg/day, ip administered for 30 days by electronic caliper method; assay type: functional, organism-based; conditions: time 30.0 day

SMILES: Cn1cnc2c(F)c(Nc3ccc(Br)cc3F)c(C(=O)NOCCO)cc21 [BINIMETINIB]
- inhibition (SK-MEL-2 [1]): Active
- CI (SK-MEL-2 [2]): 0.5
- T/C (SK-MEL-2 [3]): 24.8%
- inhibition in vivo at 5 mg/kg/day (SK-MEL-2 [4]): 70.4%
- Activity (SK-MEL-2 [5]): Tde
- CI (SK-MEL-2 [6]): 0.5
- Activity (SK-MEL-2 [7]): Active
